For 16 compounds, T/C results are on record in PubChem BioAssay AID256 (DTP/NCI, 2004).

“And” between values parts separate entries of the source, which are not always exact repeats. Equal values may be shown once. Inconclusive results and toxic doses are left out.

In the assay the test system is CD2F1 mice, L1210 leukemia ip, survival T/C. The assay is described as follows: NCI In Vivo Anticancer Drug Screen. Data for tumor model L1210 Leukemia (intraperitoneal) in CD2F1 (CDF1) mice. The conditions noted are these: higher = longer survival. In a few lines:
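Read-out first: treated-group measurement over vehicle-control measurement, expressed as a ratio. Animals bore a transplanted tumor line and were dosed with compound or vehicle.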

Where [1] appears, read: endpoint: mean survival time, dose: 100.0 mg/kg/injection, schedule: Q01DX001 (ip), vehicle: saline with Tween-80.
Setting [2] is: endpoint: mean survival time, dose: 25.0 mg/kg/injection, schedule: Q01DX009 (ip), vehicle: saline with Tween-80.
Where [3] appears, read: endpoint: mean survival time, dose: 50.0 mg/kg/injection, schedule: Q01DX009 (ip), vehicle: saline with Tween-80.
Where [4] appears, read: endpoint: mean survival time, dose: 100.0 mg/kg/injection, schedule: Q01DX009 (ip), vehicle: saline with Tween-80.
Where [5] appears, read: endpoint: mean survival time, dose: 200.0 mg/kg/injection, schedule: Q01DX009 (ip), vehicle: saline with Tween-80.
[6] abbreviates: endpoint: mean survival time, dose: 100.0 mg/kg/injection, schedule: Q04DX003 (ip), vehicle: saline.
Setting [7] is: endpoint: mean survival time, dose: 200.0 mg/kg/injection, schedule: Q04DX003 (ip), vehicle: saline.
The mark [8] stands for this setting: endpoint: mean survival time, dose: 100.0 mg/kg/injection, schedule: Q04DX003 (ip), vehicle: saline with Tween-80.
The mark [9] stands for this setting: endpoint: mean survival time, dose: 200.0 mg/kg/injection, schedule: Q04DX003 (ip), vehicle: saline with Tween-80.
Setting [10] is: endpoint: mean survival time, dose: 400.0 mg/kg/injection, schedule: Q04DX003 (ip), vehicle: saline with Tween-80.

In the case of `CCOC(=O)C(C#N)C1CNP(=O)(N(CCCl)CCCl)OC1` (stereo not given), the T/C runs as follows: (endpoint: mean survival time, dose: 31.25 mg/kg/injection, schedule: Q01DX001 (ip), vehicle: DMSO) 98 % of control; (endpoint: mean survival time, dose: 62.5 mg/kg/injection, schedule: Q01DX001 (ip), vehicle: DMSO) 98 % of control; (endpoint: mean survival time, dose: 125.0 mg/kg/injection, schedule: Q01DX001 (ip), vehicle: DMSO) 100 % of control; (endpoint: mean survival time, dose: 250.0 mg/kg/injection, schedule: Q01DX001 (ip), vehicle: DMSO) 100 % of control; (endpoint: mean survival time, dose: 500.0 mg/kg/injection, schedule: Q01DX001 (ip), vehicle: DMSO) 112 % of control; (endpoint: mean survival time, dose: 1000.0 mg/kg/injection, schedule: Q01DX001 (ip), vehicle: DMSO) 115 % of control.

Turning to `CNc1nc(NC)nc(NC)n1`, the T/C was 95 % of control (endpoint: mean survival time, dose: 12.5 mg/kg/injection, schedule: Q01DX009 (ip), vehicle: Klucel (hydroxypropylcellulose) (HPC)); 97 % of control (endpoint: mean survival time, dose: 25.0 mg/kg/injection, schedule: Q01DX009 (ip), vehicle: Klucel (hydroxypropylcellulose) (HPC)); 97 % of control (endpoint: mean survival time, dose: 50.0 mg/kg/injection, schedule: Q01DX009 (ip), vehicle: Klucel (hydroxypropylcellulose) (HPC)); 100 % of control (endpoint: mean survival time, dose: 100.0 mg/kg/injection, schedule: Q01DX009 (ip), vehicle: Klucel (hydroxypropylcellulose) (HPC)); 103 % of control (endpoint: mean survival time, dose: 200.0 mg/kg/injection, schedule: Q01DX009 (ip), vehicle: Klucel (hydroxypropylcellulose) (HPC)).

With `CC(=O)OC/C=C(C)/C=C/C=C(C)/C=C/C1=C(C)CCCC1(C)C`, the T/C is, setting by setting: (endpoint: mean survival time, dose: 200.0 mg/kg/injection, schedule: Q01DX001 (ip), vehicle: steriod suspending solution) 96 % of control; (endpoint: mean survival time, dose: 200.0 mg/kg/injection, schedule: Q01DX009 (ip), vehicle: steriod suspending solution) 96 % of control; (endpoint: mean survival time, dose: 400.0 mg/kg/injection, schedule: Q01DX001 (ip), vehicle: steriod suspending solution) 102 % of control; (endpoint: mean survival time, dose: 400.0 mg/kg/injection, schedule: Q01DX009 (ip), vehicle: steriod suspending solution) 93 % of control; (endpoint: mean survival time, dose: 800.0 mg/kg/injection, schedule: Q01DX001 (ip), vehicle: steriod suspending solution) 92 % of control; (endpoint: mean survival time, dose: 800.0 mg/kg/injection, schedule: Q01DX009 (ip), vehicle: steriod suspending solution) 86 % of control. Also, the T/C (endpoint: mean survival time, dose: 1600.0 mg/kg/injection, schedule: Q01DX001 (ip), vehicle: steriod suspending solution) was 92 % of control.

With `O=C1C(O)=Cc2coc(=O)c3ccc(-c4ccccc4)c1c23`, under setting [1], the T/C is 91 % of control.

Regarding `Nc1cc2c3c(cccc3c1)C(=O)N(CCN1CCCC1)C2=O`, the T/C is, setting by setting: (endpoint: mean survival time, dose: 3.12 mg/kg/injection, schedule: Q01DX009 (ip), vehicle: saline with Tween-80) 96 % of control and 102 % of control; (endpoint: mean survival time, dose: 6.25 mg/kg/injection, schedule: Q01DX009 (ip), vehicle: saline with Tween-80) 101 % of control and 107 % of control; (endpoint: mean survival time, dose: 12.5 mg/kg/injection, schedule: Q01DX009 (ip), vehicle: saline with Tween-80) 117 % of control and 110 % of control; under setting [2], 113 % of control and 119 % of control and 111 % of control; under setting [3], 175 % of control; under setting [4], 86 % of control. Under setting [5], the T/C was 91 % of control.

For the compound `Cc1cc(C)[nH]c(=S)n1.[Pd]`, the T/C runs as follows: (endpoint: mean survival time, dose: 3.12 mg/kg/injection, schedule: Q04DX003 (ip), vehicle: saline) 97 % of control; (endpoint: mean survival time, dose: 6.25 mg/kg/injection, schedule: Q04DX003 (ip), vehicle: saline) 102 % of control; (endpoint: mean survival time, dose: 12.5 mg/kg/injection, schedule: Q04DX003 (ip), vehicle: saline) 100 % of control; (endpoint: mean survival time, dose: 25.0 mg/kg/injection, schedule: Q04DX003 (ip), vehicle: saline) 103 % of control; (endpoint: mean survival time, dose: 50.0 mg/kg/injection, schedule: Q04DX003 (ip), vehicle: saline) 102 % of control; under setting [6], 105 % of control. The T/C under setting [7] is 102 % of control.

`Cl/C=C(\Cl)CCl`: the T/C is 91 % of control under setting [2], 96 % of control under setting [3] and 94 % of control under setting [4].

As to `CCC1CCCCN1C(=S)N/N=C(\C)c1ccccn1` (stereo not given), the T/C was 101 % of control (endpoint: median survival time, dose: 6.25 mg/kg/injection, schedule: Q01DX009 (ip), vehicle: saline with Tween-80); 108 % of control (endpoint: median survival time, dose: 12.5 mg/kg/injection, schedule: Q01DX009 (ip), vehicle: saline with Tween-80); 86 % of control (endpoint: median survival time, dose: 25.0 mg/kg/injection, schedule: Q01DX009 (ip), vehicle: saline with Tween-80).

On to `CC1=C(C)C(COS(=O)(=O)c2ccc(C)cc2)C1COS(=O)(=O)c1ccc(C)cc1` (stereo not given), for which the T/C reads like this: under setting [6], 97 % of control; under setting [7], 97 % of control; (endpoint: mean survival time, dose: 400.0 mg/kg/injection, schedule: Q04DX003 (ip), vehicle: saline) 95 % of control.

Consider `COc1cc(N)c2nc(C(O)C(O)C(O)CO)cnc2c1` (stereo not given), for which the T/C by setting is: (endpoint: median survival time, dose: 12.5 mg/kg/injection, schedule: Q01DX005 (ip), vehicle: distilled water + Tween-80) 98 % of control; (endpoint: median survival time, dose: 25.0 mg/kg/injection, schedule: Q01DX005 (ip), vehicle: distilled water + Tween-80) 90 % of control; (endpoint: median survival time, dose: 50.0 mg/kg/injection, schedule: Q01DX005 (ip), vehicle: distilled water + Tween-80) 89 % of control; (endpoint: median survival time, dose: 100.0 mg/kg/injection, schedule: Q01DX005 (ip), vehicle: distilled water + Tween-80) 92 % of control; (endpoint: median survival time, dose: 200.0 mg/kg/injection, schedule: Q01DX005 (ip), vehicle: distilled water + Tween-80) 95 % of control.

Consider `COc1ccc(N2C(=O)C=CC2=O)cc1`, for which the T/C is 103 % of control (endpoint: mean survival time, dose: 6.25 mg/kg/injection, schedule: Q01DX001 (ip), vehicle: saline with Tween-80); 88 % of control (endpoint: mean survival time, dose: 12.5 mg/kg/injection, schedule: Q01DX001 (ip), vehicle: saline with Tween-80); 94 % of control and 97 % of control (endpoint: mean survival time, dose: 25.0 mg/kg/injection, schedule: Q01DX001 (ip), vehicle: saline with Tween-80).

In the case of `CC1(C)CC(=O)C2=C(C1)OC1(O)CC(C)(C)CC(=O)C1C2c1ccccc1Cl` (stereo not given), the T/C under setting [4] was 93 % of control; the T/C under setting [8] is 92 % of control; the T/C under setting [5] is 93 % of control; the T/C under setting [9] was 94 % of control; the T/C (endpoint: mean survival time, dose: 400.0 mg/kg/injection, schedule: Q01DX009 (ip), vehicle: saline with Tween-80) was 95 % of control; the T/C under setting [10] was 96 % of control.

As for `CCCCCCCC(=O)N/N=C(\CO)[C@]1(O)Cc2c(O)c3c(c(O)c2[C@@H](OC2CC(N)C(O)C(C)O2)C1)C(=O)c1c(OC)cccc1C3=O` (stereo not given in full), the T/C by setting is: (endpoint: mean survival time, dose: 1.5 mg/kg/injection, schedule: Q01DX009 (ip), vehicle: saline) 124 % of control; (endpoint: mean survival time, dose: 3.0 mg/kg/injection, schedule: Q01DX009 (ip), vehicle: saline) 122 % of control; (endpoint: mean survival time, dose: 6.0 mg/kg/injection, schedule: Q01DX009 (ip), vehicle: saline) 122 % of control; (endpoint: mean survival time, dose: 12.0 mg/kg/injection, schedule: Q01DX009 (ip), vehicle: suspension in saline) 118 % of control; (endpoint: mean survival time, dose: 48.0 mg/kg/injection, schedule: Q01DX009 (ip), vehicle: suspension in saline) 162 % of control.

Turning to `Cc1ccc(C(OS(=O)(=O)c2ccc(C)cc2)C(F)(F)F)cc1` (stereo not given), the T/C is 104 % of control under setting [1]; 107 % of control under setting [8]; 108 % of control (endpoint: mean survival time, dose: 200.0 mg/kg/injection, schedule: Q01DX001 (ip), vehicle: saline with Tween-80); 101 % of control under setting [9]; 106 % of control (endpoint: mean survival time, dose: 400.0 mg/kg/injection, schedule: Q01DX001 (ip), vehicle: saline with Tween-80); 98 % of control under setting [10].

Take `COC(=O)/C(=C\c1ccccc1Cl)C(C)=O`: the T/C is, setting by setting: under setting [8], 104 % of control; under setting [9], 98 % of control; under setting [10], 102 % of control.

For `CN(Cc1ccc(C#N)cc1)N=Nc1ccc(C(=O)O)cc1`, the T/C (endpoint: mean survival time, dose: 25.0 mg/kg/injection, schedule: Q01DX009 (ip), vehicle: other) is 106 % of control; the T/C (endpoint: mean survival time, dose: 50.0 mg/kg/injection, schedule: Q01DX009 (ip), vehicle: other) is 87 % of control; the T/C (endpoint: mean survival time, dose: 100.0 mg/kg/injection, schedule: Q01DX009 (ip), vehicle: other) is 106 % of control; the T/C (endpoint: mean survival time, dose: 200.0 mg/kg/injection, schedule: Q01DX009 (ip), vehicle: other) is 102 % of control; the T/C (endpoint: mean survival time, dose: 400.0 mg/kg/injection, schedule: Q01DX009 (ip), vehicle: other) is 120 % of control.
